Measurements as given in patent publication US11866430B2, “Naphthyridinone compounds useful as T cell activators” (priority 2018, dated 2024).

Columns and labels:
human DGKα = human DGKα (Homo sapiens (Human), UniProt P23743); assay: biochemical; details: detergent/lipid micelle substrate; read-out: DGKα IC50
Summary of the method: (§1)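 Full-length human DGKζ (and DGKα), C-terminal His-tagged, Sf9-expressed, with phosphatidylserine/DAG micelles in 50 mM octyl glucoside; buffer 50 mM MOPS pH 7.5, 100 mM NaCl, 10 mM MgCl2, 1 μM CaCl2, 1 mM DTT.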

human DGKζ = human DGKζ (Homo sapiens (Human), UniProt Q13574); assay: DGKζ assay (detergent/lipid micelle substrate); format: biochemical; details: detergent/lipid micelle substrate; read-out: DGKζ IC50
Summary of the method: as §1

[1] = test system: pre-activated CD4 T cells and Raji cells; assay: Raji CD4 T Cell IL2 Assay; format: cell-based; details: Homo sapiens, Raji

Chain of human DGKζ (Q13574 other isoform, or with tags, fused parts or gaps): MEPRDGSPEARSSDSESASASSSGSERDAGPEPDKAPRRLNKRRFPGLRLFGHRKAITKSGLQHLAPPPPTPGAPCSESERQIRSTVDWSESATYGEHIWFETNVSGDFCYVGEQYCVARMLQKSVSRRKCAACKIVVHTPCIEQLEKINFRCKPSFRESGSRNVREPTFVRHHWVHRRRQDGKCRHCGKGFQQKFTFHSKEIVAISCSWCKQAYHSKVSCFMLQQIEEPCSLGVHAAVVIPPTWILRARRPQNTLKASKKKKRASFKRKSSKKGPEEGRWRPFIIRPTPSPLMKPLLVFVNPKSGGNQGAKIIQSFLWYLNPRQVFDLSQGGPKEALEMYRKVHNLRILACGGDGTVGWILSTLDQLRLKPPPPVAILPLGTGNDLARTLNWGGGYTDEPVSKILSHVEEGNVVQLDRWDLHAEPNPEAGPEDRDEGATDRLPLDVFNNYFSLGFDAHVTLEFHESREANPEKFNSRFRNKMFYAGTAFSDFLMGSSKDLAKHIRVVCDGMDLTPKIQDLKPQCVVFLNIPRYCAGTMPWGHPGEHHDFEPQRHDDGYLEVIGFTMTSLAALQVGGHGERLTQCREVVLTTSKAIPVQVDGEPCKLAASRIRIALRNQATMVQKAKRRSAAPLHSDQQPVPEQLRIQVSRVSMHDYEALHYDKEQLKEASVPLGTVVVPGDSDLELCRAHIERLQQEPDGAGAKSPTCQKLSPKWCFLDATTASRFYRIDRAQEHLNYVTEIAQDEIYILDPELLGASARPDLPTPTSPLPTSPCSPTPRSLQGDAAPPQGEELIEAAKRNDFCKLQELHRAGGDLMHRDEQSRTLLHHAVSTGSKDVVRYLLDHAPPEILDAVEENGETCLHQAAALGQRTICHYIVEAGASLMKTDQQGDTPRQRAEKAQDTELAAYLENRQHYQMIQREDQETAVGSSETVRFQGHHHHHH
Chain of human DGKα (P23743 other isoform, or with tags, fused parts or gaps): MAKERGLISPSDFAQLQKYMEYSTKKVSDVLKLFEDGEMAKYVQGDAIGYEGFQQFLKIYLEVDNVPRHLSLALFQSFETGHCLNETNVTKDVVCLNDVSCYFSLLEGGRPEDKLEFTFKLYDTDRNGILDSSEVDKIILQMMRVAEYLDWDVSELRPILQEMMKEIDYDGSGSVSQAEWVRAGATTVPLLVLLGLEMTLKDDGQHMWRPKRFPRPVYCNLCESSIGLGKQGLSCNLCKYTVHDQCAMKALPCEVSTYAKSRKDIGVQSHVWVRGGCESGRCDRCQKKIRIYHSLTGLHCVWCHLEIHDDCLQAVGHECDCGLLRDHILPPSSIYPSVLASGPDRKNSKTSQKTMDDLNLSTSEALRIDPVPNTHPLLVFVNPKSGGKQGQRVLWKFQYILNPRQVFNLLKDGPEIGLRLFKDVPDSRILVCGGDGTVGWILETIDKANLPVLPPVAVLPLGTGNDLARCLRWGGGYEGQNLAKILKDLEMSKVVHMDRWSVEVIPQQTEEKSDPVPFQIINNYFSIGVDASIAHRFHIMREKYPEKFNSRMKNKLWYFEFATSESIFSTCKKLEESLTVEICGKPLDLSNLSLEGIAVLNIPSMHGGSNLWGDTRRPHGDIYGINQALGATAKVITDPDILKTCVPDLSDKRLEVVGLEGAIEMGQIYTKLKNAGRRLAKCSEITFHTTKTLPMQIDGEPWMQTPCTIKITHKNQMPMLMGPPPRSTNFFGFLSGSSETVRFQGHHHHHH

Structure (SMILES)	IC50 (human DGKα) [µM]	IC50 (human DGKζ) [µM]	IC50 [1] [µM]
Cn1c(=O)c(C#N)c(N2CCN(Cc3cc(OC(F)(F)F)ccc3O)CC2)c2nc(Cl)ccc21 [Example 369, 6-chloro-4-(4-{[2-hydroxy-5-(trifluoromethoxy)phenyl]methyl}piperazin-1-yl)-1-methyl-2-oxo-1,2-dihydro-1,5-naphthyridine-3-carbonitrile]	0.16	> 240	> 100
Cn1c(=O)c(C#N)c(N2CCN(Cc3cc(Cl)ccc3O)CC2)c2nc(Cl)ccc21 [Example 370, 6-chloro-4-{4-[(5-chloro-2-hydroxyphenyl)methyl]piperazin-1-yl}-1-methyl-2-oxo-1,2-dihydro-1,5-naphthyridine-3-carbonitrile]	0.17	> 240	> 100
COc1cccc(CN2CCN(c3c(C#N)c(=O)n(C)c4ccc(Cl)nc34)CC2)c1O [Example 371, 6-chloro-4-{4-[(2-hydroxy-3-methoxyphenyl)methyl]piperazin-1-yl}-1-methyl-2-oxo-1,2-dihydro-1,5-naphthyridine-3-carbonitrile]	0.23	170	> 100
Cn1c(=O)c(C#N)c(N2CCN(Cc3ccc(C(F)(F)F)c(F)c3)CC2)c2nc(Cl)ccc21 [Example 375, 6-chloro-4-(4-{[3-fluoro-4-(trifluoromethyl)phenyl]methyl}piperazin-1-yl)-1-methyl-2-oxo-1,2-dihydro-1,5-naphthylidine-3-carbonitrile]	1.6	> 240	> 100
Cn1c(=O)c(C#N)c(N2CCN(Cc3ccc(Cl)cc3)CC2)c2nc(Cl)ccc21 [Example 417, 6-chloro-4-{4-[(4-chlorophenyl)methyl]piperazin-1-yl}-1-methyl-2-oxo-1,2-dihydro-1,5-naphthyridine-3-carbonitrile]	0.25	> 240	0.15
Cn1c(=O)c(C#N)c(N2CCN(C3(c4ccc(F)cc4)CC3)CC2)c2nc(Cl)ccc21 [Example 421, 6-chloro-4-{4-[1-(4-fluorophenyl)cyclopropyl]piperazin-1-yl}-1-methyl-2-oxo-1,2-dihydro-1,5-naphthyridine-3-carbonitrile]	69	> 240	2.8
Cc1ccc2c(n1)c(N1CCN(C(c3ccc(F)cc3)c3ccc(F)cc3)CC1)cc(=O)n2C [Example 427, 4-{4-[bis(4-fluorophenyl)methyl]piperazin-1-yl}-1,6-dimethyl-1,2-dihydro-1,5-naphthyridin-2-one]	150	> 240	2.4
